Converted amounts (≈) assume the structure as drawn.

Data set [1] relates to Staphylococcus aureus. Kind of data set: Compound was tested in vivo for its anti-methicillin-resistant staphylococcus aureus(MRSA). Format: functional.
Data set [2] in a line: Compound was measured for binding rate for human serum at a carbapenem concentration of 10 ug/mL. Type of data set: ADME. The note with it: read-out: Protein binding (converted).
Data set [3] deals with T1, Dipeptidase 1 (Sus scrofa) (UniProt P22412).
T1 sequence (whole entry): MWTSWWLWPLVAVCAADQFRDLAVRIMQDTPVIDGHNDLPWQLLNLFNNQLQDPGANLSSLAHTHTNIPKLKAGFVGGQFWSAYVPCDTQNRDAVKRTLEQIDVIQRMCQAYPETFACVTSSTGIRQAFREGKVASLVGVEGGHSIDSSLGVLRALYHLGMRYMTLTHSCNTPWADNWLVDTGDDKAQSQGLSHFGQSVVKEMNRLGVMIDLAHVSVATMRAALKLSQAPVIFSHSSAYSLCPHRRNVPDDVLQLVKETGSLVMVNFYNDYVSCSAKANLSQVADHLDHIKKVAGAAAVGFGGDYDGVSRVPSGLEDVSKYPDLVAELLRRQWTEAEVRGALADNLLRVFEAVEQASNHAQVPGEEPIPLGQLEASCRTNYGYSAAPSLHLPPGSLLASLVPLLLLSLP
Kind of data set: Relative rate of hydrolysis of porcine renal dehydropeptidase-I (DHP-I) to imipenem. Format: functional.

Data set [4] addresses T1, Dipeptidase 1 (Sus scrofa). Kind of data set: Compound was measured for DHP-I susceptibility. Type of data set: functional.
The species named for another data set is Mus musculus. Kind of data set: Compound was measured for binding rate for mouse serum at a carbapenem concentration of 10 ug/mL. Type of data set: functional.
The next data set has as its system Enterococcus faecalis. Put plainly: In vitro antibacterial activity against Enterococcus faecalis MB4996 organism. Format: functional.
Data set [5] concerns Staphylococcus aureus. Put plainly: In vitro antibacterial activity against staphylococcus aureus 209P NIHJ JC1 organism. Type of data set: functional.
The subject of a further data set is Escherichia coli. Kind of data set: In vitro antibacterial activity against Escherichia coli NIHJ JC2 organism. Format: functional.
Another data set relates to Pseudomonas aeruginosa. Put plainly: In vitro antibacterial activity against Pseudomonas aeruginosa MB5002 organism. Format: functional.
The subject of data set [6] is Staphylococcus aureus. Kind of data set: In vitro antibacterial activity against staphylococcus aureus CSa1009 (Methicillin-resistant strain and b beta-Lactamase producing strain). Format: functional.
The subject of data set [7] is Staphylococcus epidermidis. Put plainly: In vitro antibacterial activity against Staphylococcus epidermidis MB5181a organism. Type of data set: functional. The following applies: Staphylococcus epidermidis; read-out: MIC.
Data set [8] deals with Rattus norvegicus. Put plainly: Epileptogenicity of compound was measured at 100 ug/rat head by the rat intraventricular assay; 3/5. Type of data set: functional.
Data set [9] concerns Staphylococcus aureus. Put plainly: In vitro antibacterial activity against staphylococcus aureus BB6294 organism (Methicillin-resistant strain). Format: functional.
Data set [10] relates to Staphylococcus aureus. Kind of data set: Compound was tested in vitro for its anti-methicillin-resistant staphylococcus aureus(MRSA); 3.13-12.5. Type of data set: functional.
Data set [11] deals with Staphylococcus aureus. Kind of data set: (§1) PBP-2'' affinity was determined by the competition assay with [14C]benzylpenicillin using membrane isolated from MRSA BB6294 strain. Type of data set: functional.
The nature of data set [12]: as §1. Type of data set: functional, Staphylococcus aureus.
Data set [13] relates to Rattus norvegicus. Put plainly: Epileptogenicity of compound was measured at 100 ug/rat head by the rat intraventricular assay; 0/5. Type of data set: functional, Cerebral ventricle.
Data set [14] deals with Staphylococcus aureus. Kind of data set: Compound was tested in vitro for its anti-methicillin-resistant staphylococcus aureus(MRSA); 3.13-6.25. Type of data set: functional.
Data set [15] concerns Staphylococcus aureus. Kind of data set: Compound was tested in vitro for its anti-methicillin-resistant staphylococcus aureus(MRSA); 0.78-3.13. Format: functional.
Data set [16] relates to Rattus norvegicus. Kind of data set: Epileptogenicity of compound was measured at 100 ug/rat head by the rat intraventricular assay; 1/5. Format: functional.

`C[C@@H](O)[C@H]1C(=O)N2C(C(=O)[O-])=C(SC(=S)N3CC[N+](C)(Cc4ccccc4)CC3)[C@H](C)[C@H]12`: the 50% effect level in the data set on Staphylococcus aureus [1] (ED50) was put at a dose of 10 mg/kg. In addition, the fraction unbound at 10 ug/mL in data set [2] was 0.4. Moreover, the DHP-I susceptibility in data set [3] and in data set [4] was 0.15 each time. For the same compound, the PPB in the data set filed under Mus musculus came out at 82%. Further, the MIC against Enterococcus faecalis was 1.56 µg/mL (≈ 3.28 µM); in the data set on Staphylococcus aureus [5], less than 0.006 µg/mL; against Escherichia coli, 1.56 µg/mL (≈ 3.28 µM); in the data set with Pseudomonas aeruginosa, greater than 25 µg/mL; against Staphylococcus aureus [6], 6.25 µg/mL (≈ 13.1 µM); in data set [7], 1.56 µg/mL (≈ 3.28 µM). The MIC is 3.13 µg/mL (≈ 6.58 µM) against Staphylococcus aureus [9] and 5.36 µg/mL (≈ 11.3 µM) against Staphylococcus aureus [10]. This compound also gave an Epileptogenicity in the data set with Rattus norvegicus [8] of 3.

In the data set with Staphylococcus aureus [1] (Staphylococcus aureus), `C[C@@H](O)[C@H]1C(=O)N2C(C(=O)O)=C(SCCNC=N)C[C@H]12` [IMIPENEM ANHYDROUS] had an ED50 greater than 200 mg/kg. The compound further returned a DHP-I susceptibility in data set [3] of 1. Moreover, the MIC was 0.78 µg/mL (≈ 2.61 µM) in the data set with Enterococcus faecalis; less than 0.006 µg/mL in the data set on Staphylococcus aureus [5]; 0.1 µg/mL (≈ 0.334 µM) in the data set with Escherichia coli; 1.56 µg/mL (≈ 5.21 µM) in the data set with Pseudomonas aeruginosa; 100 µg/mL (≈ 334 µM) in the data set with Staphylococcus aureus [6]; 100 µg/mL (≈ 334 µM) in [7]. The MIC against Staphylococcus aureus [9] turned out to be 100 µg/mL (≈ 334 µM). In the data set on Staphylococcus aureus [11], this compound came in with an IC50 of 125 µg/mL (≈ 418 µM).

As to `C[C@@H](O)[C@H]1C(=O)N2C(C(=O)O)=C(SC(=S)N(C)CCO)[C@H](C)[C@H]12`, in the data set with Staphylococcus aureus [1], it took a dose of 4.8 mg/kg to reach the 50% effect level (ED50). Moreover, in data set [2], the fraction unbound at 10 ug/mL is 0.53. Also, the IC50 in [12] came out at 3.8 µg/mL (≈ 10.5 µM). Besides, the figures for the DHP-I susceptibility in [3] and in data set [4] were 1.36 and 1.33, respectively. In addition, the PPB in the data set listed under Mus musculus came to 58%. Moreover, the MIC in the data set with Enterococcus faecalis was 6.25 µg/mL (≈ 17.3 µM); against Staphylococcus aureus [5], 0.025 µg/mL (≈ 0.0694 µM); in the data set with Escherichia coli, 0.78 µg/mL (≈ 2.16 µM); in the data set with Staphylococcus aureus [14], 4.36 µg/mL (≈ 12.1 µM); in the data set on Pseudomonas aeruginosa, greater than 25 µg/mL; against Staphylococcus aureus [6] it was 6.25 µg/mL (≈ 17.3 µM). Also, the MIC in data set [7] worked out at 6.25 µg/mL (≈ 17.3 µM); against Staphylococcus aureus [9], 3.13 µg/mL (≈ 8.68 µM). For the same compound, the Epileptogenicity in the data set on Rattus norvegicus [13] turned out to be 0.

In turn, `C[C@@H](O)[C@H]1C(=O)N2C(C(=O)O)=C(SC(=S)N3CCCC(O)CC3)[C@H](C)[C@H]12` (stereo partly drawn) registered an ED50 with Staphylococcus aureus [1] of 2.88 mg/kg. The fraction unbound at 10 ug/mL in [2] is 0.15. The compound further displayed an IC50 in [12] of 1.9 µg/mL (≈ 4.74 µM). For the same compound, the DHP-I susceptibility in data set [3] and in data set [4] was 2.88 in each case. The compound further returned a PPB in the data set listed under Mus musculus of 92%. In addition, the MIC was 3.13 µg/mL (≈ 7.81 µM) against Enterococcus faecalis; 0.012 µg/mL (≈ 0.03 µM) against Staphylococcus aureus [5]; 12.5 µg/mL (≈ 31.2 µM) in the data set with Escherichia coli; 3.55 µg/mL (≈ 8.86 µM) against Staphylococcus aureus [14]; greater than 25 µg/mL against Pseudomonas aeruginosa; 3.13 µg/mL (≈ 7.81 µM) with Staphylococcus aureus [6]. Moreover, the MIC (in [7]; against Staphylococcus aureus [9]) was 3.13 µg/mL (≈ 7.81 µM) each time. The compound further had an Epileptogenicity in the data set with Rattus norvegicus [13] of 0.

In the data set with Staphylococcus aureus [1], `C[C@@H](O)[C@H]1C(=O)N2C(C(=O)O)=C(SC(=S)N(C)Cc3cccc4ccccc34)[C@H](C)[C@H]12` registered an ED50 greater than 50 mg/kg. In data set [2], the fraction unbound at 10 ug/mL is 0.01. For the same compound, the DHP-I susceptibility in data set [3] and in data set [4] was 4.41 in each case. In the data set filed under Mus musculus, this compound returned a PPB of 99%. Also, the MIC was 1.56 µg/mL (≈ 3.42 µM) against Enterococcus faecalis; less than 0.006 µg/mL in the data set on Staphylococcus aureus [5]; 25 µg/mL (≈ 54.8 µM) in the data set on Escherichia coli; 1.15 µg/mL (≈ 2.52 µM) against Staphylococcus aureus [15]; greater than 25 µg/mL in the data set on Pseudomonas aeruginosa; 1.56 µg/mL (≈ 3.42 µM) against Staphylococcus aureus [6]. Besides, the MIC is 0.39 µg/mL (≈ 0.854 µM) in data set [7] and 0.78 µg/mL (≈ 1.71 µM) with Staphylococcus aureus [9]. Moreover, in the data set with Rattus norvegicus [13], the Epileptogenicity came out at 0.

For the compound `C[C@@H](O)[C@H]1C(=O)N2C(C(=O)O)=C(SC(=S)N3CCCC3)[C@H](C)[C@H]12`, in the data set on Staphylococcus aureus [1], the ED50 stood at 6.24 mg/kg. Besides, the fraction unbound at 10 ug/mL in [2] is 0.06. In addition, the IC50 in data set [12] came out at 5.6 µg/mL (≈ 15.7 µM). Also, the DHP-I susceptibility in data set [3] and in [4] was 3.18 each time. In addition, the PPB in the data set filed under Mus musculus was found to be 95%. The MIC in the data set on Enterococcus faecalis was 12.5 µg/mL (≈ 35.1 µM); against Staphylococcus aureus [5], 0.012 µg/mL (≈ 0.0337 µM); in the data set on Escherichia coli, 6.25 µg/mL (≈ 17.5 µM); in the data set on Staphylococcus aureus [14] it was 4.04 µg/mL (≈ 11.3 µM); in the data set on Pseudomonas aeruginosa, greater than 25 µg/mL; against Staphylococcus aureus [6] it was 6.25 µg/mL (≈ 17.5 µM). The MIC (in data set [7]; against Staphylococcus aureus [9]) was 3.13 µg/mL (≈ 8.78 µM) throughout. The Epileptogenicity in the data set on Rattus norvegicus [16] is 1.
